Data on three substances can be found in patent publication US9421173B2, “Nano delivery systems for siRNA” (YISSUM RESEARCH DEVELOPMENT COMPANY OF THE HEBREW …, priority 2011, dated 2016).

What all share (format): physicochemical
Data set [1] can be described thus: Encapsulation efficacy of siRNA in crosslinked HSA NSs (Trypsin digestion, RP-HPLC). Particulars: 200 μg siRNA. The method, then:
For encapsulation of siRNA inside crosslinked HSA NSs, siRNA was added to HSA solution prior the addition of desolvating phase. The rest of procedure was made exactly in the same manner detailed above, when instead of using DDW, RNAse free water (RNFW) was used. After crosslinking, the NSs were washed and the total ultrafiltrate was collected, lyophilized and reconstituted with 500 μl RNFW, from which, 160 ul were injected to HPLC. Since partial degradation of free siRNA in the ultrafiltrate was observed, the preferred way to determine siRNA content in the NSs is to directly determine siRNA content in the particle (after its digestion), and not based on the free siRNA (un-encapsulated) in the ultrafiltrate.
The total weight of HSA per 100 μl of suspension (after wash) was quantified gravimetrically. Then 1-2 mg of washed HSA NPs encapsulating siRNA was diluted to 1 ml with RNase free PBS buffer (adjusted to pH=7.5 using 0.5 M NaOH solution) and digested with 20 to 150 μg Trypsin for 60, 90 or 180 min, at dark and under mild shaking at 37° C., till a clear solution was formed. In case sample containing DOTAP, Heparin (90 μg) was added to the aqueous phase, 0 or 60 min after the addition of Trypsin. The free siRNA quantity was determined using RP-HPLC, in the presence of Trypsin or without it.
In order to determine the encapsulation efficacy of siRNA in the crosslinked HSA NSs, the washed NSs were digested with Trypsin till a clear solution was formed and the total siRNA content was detected using RP-HPLC and calculated based on AUC. According to the protocol we have developed in our lab (for detailing see section E), the reliability of such method in quantification the released siRNA, is highly efficient (FIGS. 5-6). A few trends can be concluded; In the presence of DOTAP, the best encapsulation (˜40%) accepted at the low basic pH (pH 8 and 7). At pH 9, removal of the DOTAP from NSs, have reduced encapsulation efficacies. This effect is more pronounced when the non cholesterol modified siRNA (GFP-siRNA) is used.

Data set [2] can be described thus: Melting point measurements for siRNAs (UV 260 nm). Particulars: buffer 48 mM Tris, 96 mM NaCl, pH 7.1. The method, then: Melting point measurements for different siRNAs (21-mer) used were performed on a UV-visible spectrophotometer (Cary 300) at 260 nm, by elevating the sample temperature from 20° C. to 85° C. at rate of 1° C./min. All siRNAs were dissolved in buffer (48 mM Tris, 96 mM NaCl, pH 7.1) to obtain a concentration of 4-10 ng/μl.
The temperature at which the 50% of siRNA strands are denatured is called the melting temperature, or Tm. The Tm for various siRNAs (21 mers) used in our research, was measured and found to be: 78, 77 and 72° C. for GFP-siRNA, Chol-GFP-siRNA and EGFR-siRNA, respectively. With all examined siRNAs, beginning of separation was already observed at 60° C. (data not shown).

Data set [3] can be described thus: Integrity evaluation of free siRNA exposed to pH 7, 8, 9 with or without glutaraldehyde (HPLC, PAGE 8%). Particulars: for integrity of free siRNA in the presence of the cross linker (glutaraldehyde): 3 hr, all the pH tested (7, 8, 9), 'heavy' specie runs slower at the gel. As to the method:
FIGS. 16A-16B are gel retardation assays (PAGE 8%) for evaluation of free siRNA integrity after exposure to different conditions. Integrity evaluation was made for GFP-siRNA (FIG. 16A) and Chol-GFP-siRNA (FIG. 16B). Lane No. 1—ladder, Lane No. 2, 3—controls with 100 and 50 ng of untreated siRNA respectively. Lanes 4, 6 and 8, with siRNA exposed to pH 7, 8 and 9, respectively. Lanes 5, 7 and 9, with siRNA exposed to pH 7, 8 and 9 in the presence of glutaraldehyde (0.014% (v/v)), respectively.
(§1) For siRNA integrity (stability) evaluation 8% (19:1) native polyacrylamide gels (PAGE) was used. Electrophoresis was carried out at 200V for 50 min, in Tris-Borate-EDTE (TBE) as running buffer. For siRNA staining, 0.01% of EtBr was used. Gels were visualized under a UV transilluminator.
During the primal encapsulation process of siRNA in the HSA NSs it has been exposed to materials with distractive potential such as basic pH conditions and the presence of cross linker (glutaraldehyde) who can interact with the primal amine present in the nucleic bases: Guanine, Adenine or Cytosine. Hens, the need in siRNA integrity evaluation arise. First, integrity evaluation of the free siRNA (GFP-siRNA and Chol-GFP-siRNA) was made. The siRNAs were exposed to the same conditions used for production of crosslinked HSA NSs (3 hr at aqueous solutions with pH of 7, 8 or 9 with or without the presence of glutaraldehyde), then a fraction from each sample was analyzed using HPLC (data not shown) and gel retardation assay (PAGE 8%) (FIG. 16).

Data set [4] is described as follows: Integrity evaluation of siRNA extracted from crosslinked HSA NSs and from NCs (HPLC, PAGE 8%). Particulars: compared with untreated siRNA. As to the method: FIGS. 17A-17B are gel retardation assays (PAGE 8%) for evaluation of extracted siRNA. Integrity evaluation was made for GFP-siRNA (FIG. 17A) and Chol-GFP-siRNA (FIG. 17B). Lane No. 1—ladder, Lane No. 2—control with 100 ng of untreated siRNA. Lanes 3-8 with siRNA extracted from primal crosslinked HSA NSs (produced in different pH conditions), Lanes 9 and 10, with siRNA extracted from NCs loaded with the primal crosslinked HSA.
as §1
Later, siRNAs were extracted from the primal crosslinked HSA NSs (produced in different pH conditions), and their integrity was assessed using HPLC (data not shown) and gel retardation assay (PAGE 8%) (FIG. 17). Furthermore, the stability of siRNAs extracted from NCs loaded with the primal crosslinked HSA was also examined ([…]—lanes No. 9 & 10), since secondary encapsulation process performed under heat (Tin is 50° C.), using the nano spray drying technique. […] Based on the HPLC results, the exact amount of encapsulated siRNA was determined. […]

Take “Chol-GFP-siRNA: Cholesterol modified GFP-siRNA, 21 bp, MW 15,079 Da, SEQ ID NO: 7 and 8, provided by Roche (chain 1 AUAUCAUGGCCGACAAGCATT; chain 2 UGCUUGUCGGCCAUGAUAUTT; 5' cholesteryl, chemistry not fully specified)”: the “% encapsulation” value in data set [1] (pH 7, with 0.03 mg DOTAP) was 39%; in data set [1] (pH 8, with 0.03 mg DOTAP) it was 40%; in data set [1] (pH 9, with 0.03 mg DOTAP), 26%; in data set [1] (pH 9, without DOTAP), 16%. Besides, the “Encapsulated is RNA” value in data set [1] (pH 7, with 0.03 mg DOTAP) worked out at 76 µg; in data set [1] (pH 8, with 0.03 mg DOTAP), 80 µg; in data set [1] (pH 9, with 0.03 mg DOTAP), 52 µg; in data set [1] (pH 9, without DOTAP), 32 µg. The “melting temperature, or Tm (50% of siRNA strands denatured)” value in data set [2] turned out to be 77 °C. For the same substance, in data set [3] (3 hr in aqueous solutions of pH 7, 8 or 9, without glutaraldehyde), the “integrity of free siRNA at basic pH” value is “improved resistant to basic pH (8 and 9) compared to GFP-siRNA”. Also, in data set [3], the “integrity of free siRNA in the presence of the cross linker (glutaraldehyde)” value is recorded as “highly sensitive”. Moreover, the “integrity of siRNA encapsulated in the primal HSA NSs or secondary NCs” value in data set [4] was “stayed intact”.

Turning to “EGFR-siRNA: Anti Epidermal Growth Factor Receptor siRNA, 21 bp, MW 13,400 Da, SEQ ID NO: 1 and 2, purchased from Ambion (chain 1 CCAUAAAUGCUACGAAUAUTT; chain 2 AUAUUCGUAGCAUUUAUGGAG; a few LNA modifications, positions not given here, lowercase DNA)”, in data set [2], the “melting temperature, or Tm (50% of siRNA strands denatured)” value was determined as 72 °C.

With “GFP-siRNA: Anti Green Fluorescent Protein siRNA, 21 bp, MW 14,352 Da, SEQ ID NO: 5 and 6, provided by Roche (chain 1 AUAUCAUGGCCGACAAGCATT; chain 2 UGCUUGUCGGCCAUGAUAUTT; chemistry not fully specified)”, the “% encapsulation” value in data set [1] (pH 7, with 0.03 mg DOTAP) came to 43%; in data set [1] (pH 8, with 0.03 mg DOTAP) it was 42%; in data set [1] (pH 9, with 0.03 mg DOTAP), 24%; in data set [1] (pH 9, without DOTAP), 9%. Besides, the “Encapsulated is RNA” value in data set [1] (pH 7, with 0.03 mg DOTAP) came out at 86 µg; in data set [1] (pH 8, with 0.03 mg DOTAP), 84 µg; in data set [1] (pH 9, with 0.03 mg DOTAP), 48 µg; in data set [1] (pH 9, without DOTAP), 18 µg. Besides, in data set [2], the “melting temperature, or Tm (50% of siRNA strands denatured)” value worked out at 78 °C. Further, the “integrity of free siRNA in the presence of the cross linker (glutaraldehyde)” value in data set [3] was “highly sensitive”. Besides, the “integrity of siRNA encapsulated in the primal HSA NSs or secondary NCs” value in data set [4] was “stayed intact”.
